# Key:
# Test in all cases: KINOMEscan competition binding assay
# [1] = target: T1, MARK3 (Homo sapiens, UniProt P27448); details: LL6 at 10 μM; read-out: Percent Control
# T1 construct: purchased DiscoverX KINOMEscan
# Experimental: (§1) Kd values were obtained by KINOMEscan from DiscoverX (San Diego, CA, USA). To briefly summarize, Kd was measured by a competition binding assay that quantitatively measures the ability of a compound to compete with an immobilized ligand. […] Dose response curves of 11 points are obtained for Kd values, which are measured in duplicate. See more details in the cited references [39]-[42] and see also at www.discoverx.com.
# [2] = target: T2, PIM3 (Homo sapiens, UniProt Q86V86); details: LL6 at 10 μM; read-out: Percent Control
# T2 construct: purchased DiscoverX KINOMEscan
# Experimental: as §1
# [3] = target: T3, DCAMKL1 (Homo sapiens, UniProt O15075); details: LL6 at 10 μM; read-out: Percent Control
# T3 construct: purchased DiscoverX KINOMEscan
# Experimental: as §1
# [4] = target: T4, PAK4 (Homo sapiens, UniProt O96013); details: LL6 at 10 μM; read-out: Percent Control
# T4 construct: purchased DiscoverX KINOMEscan
# Experimental: as §1
# [5] = target: T5, PIM1 (Homo sapiens, UniProt P11309); details: LL6 at 10 μM; read-out: Percent Control
# T5 construct: purchased DiscoverX KINOMEscan
# Experimental: as §1
# [6] = target: T6, ZAP70 (Homo sapiens, UniProt P43403); details: LL6 at 10 μM; read-out: Percent Control
# T6 construct: purchased DiscoverX KINOMEscan
# Experimental: as §1
# [7] = target: T7, ROCK2 (Homo sapiens, UniProt O75116); details: LL6 at 10 μM; read-out: Percent Control
# T7 construct: purchased DiscoverX KINOMEscan
# Experimental: as §1
# [8] = target: T8, BMPR2 (Homo sapiens, UniProt Q13873); details: LL6 at 10 μM; read-out: Percent Control
# T8 construct: purchased DiscoverX KINOMEscan
# Experimental: as §1
# [9] = target: T9, KIT(D816V) (Homo sapiens, UniProt P10721, D816V); details: LL6 at 10 μM; read-out: Percent Control
# T9 construct: purchased DiscoverX KINOMEscan
# Experimental: as §1
# [10] = target: T10, CHEK1 (Homo sapiens, UniProt O14757); details: LL6 at 10 μM; read-out: Percent Control
# T10 construct: purchased DiscoverX KINOMEscan
# Experimental: as §1
# [11] = target: T11, PLK3 (Homo sapiens, UniProt Q9H4B4); details: LL6 at 10 μM; read-out: Percent Control
# T11 construct: purchased DiscoverX KINOMEscan
# Experimental: as §1
# [12] = target: T12, CSF1R (Homo sapiens, UniProt P07333)
# T12 construct: purchased DiscoverX (KINOMEscan service)
# Experimental: as §1
# [13] = target: T13, JNK3 (Homo sapiens, UniProt P53779); details: LL6 at 10 μM; read-out: Percent Control
# T13 construct: purchased DiscoverX KINOMEscan
# Experimental: as §1
# [14] = target: T14, PRKCE (Homo sapiens, UniProt Q02156); details: LL6 at 10 μM; read-out: Percent Control
# T14 construct: purchased DiscoverX KINOMEscan
# Experimental: as §1
# [15] = target: T15, RIOK2 (Homo sapiens, UniProt Q9BVS4); details: LL6 at 10 μM; read-out: Percent Control
# T15 construct: purchased DiscoverX KINOMEscan
# Experimental: as §1
# [16] = target: T16, LKB1 (Homo sapiens, UniProt Q15831); details: LL6 at 10 μM; read-out: Percent Control
# T16 construct: purchased DiscoverX KINOMEscan
# Experimental: as §1
# [17] = target: T17, BTK (Homo sapiens, UniProt Q06187); details: LL6 at 10 μM; read-out: Percent Control
# T17 construct: purchased DiscoverX KINOMEscan
# Experimental: as §1
# [18] = target: T18, TYK2(JH1domain-catalytic) (Homo sapiens, UniProt P29597); details: LL6 at 10 μM; read-out: Percent Control
# T18 construct: TYK2(JH1domain-catalytic); purchased DiscoverX KINOMEscan
# Experimental: as §1
# [19] = target: T19, FGFR3 (Homo sapiens, UniProt P22607); details: LL6 at 10 μM; read-out: Percent Control
# T19 construct: purchased DiscoverX KINOMEscan
# Experimental: as §1
# [20] = target: T20, FGFR2 (Homo sapiens, UniProt P21802); details: LL6 at 10 μM; read-out: Percent Control
# T20 construct: purchased DiscoverX KINOMEscan
# Experimental: as §1
# [21] = target: T21, TIE2 (Homo sapiens, UniProt Q02763); details: LL6 at 10 μM; read-out: Percent Control
# T21 construct: purchased DiscoverX KINOMEscan
# Experimental: as §1
# [22] = target: T22, EPHA2 (Homo sapiens, UniProt P29317); details: LL6 at 10 μM; read-out: Percent Control
# T22 construct: purchased DiscoverX KINOMEscan
# Experimental: as §1
# [23] = target: T23, MET (Homo sapiens, UniProt P08581); details: LL6 at 10 μM; read-out: Percent Control
# T23 construct: purchased DiscoverX KINOMEscan
# Experimental: as §1
# [24] = target: T24, p38-alpha (Homo sapiens, UniProt Q16539); details: LL6 at 10 μM; read-out: Percent Control
# T24 construct: purchased DiscoverX KINOMEscan
# Experimental: as §1
# [25] = target: T25, PIK3C2B (Homo sapiens, UniProt O00750); details: LL6 at 10 μM; read-out: Percent Control
# T25 construct: purchased DiscoverX KINOMEscan
# Experimental: as §1
# [26] = target: T26, VEGFR2 (Homo sapiens, UniProt P35968); details: LL6 at 10 μM; read-out: Percent Control
# T26 construct: purchased DiscoverX KINOMEscan
# Experimental: as §1
# [27] = target: T27, PDGFRA (Homo sapiens, UniProt P16234); details: LL6 at 10 μM; read-out: Percent Control
# T27 construct: purchased DiscoverX KINOMEscan
# Experimental: as §1
# [28] = target: T28, SNARK (Homo sapiens, UniProt Q9H093); details: LL6 at 10 μM; read-out: Percent Control
# T28 construct: purchased DiscoverX KINOMEscan
# Experimental: as §1
# [29] = target: T29, BRAF (Homo sapiens, UniProt P15056); details: LL6 at 10 μM; read-out: Percent Control
# T29 construct: purchased DiscoverX KINOMEscan
# Experimental: as §1
# [30] = target: T30, GSK3B (Homo sapiens, UniProt P49841); details: LL6 at 10 μM; read-out: Percent Control
# T30 construct: purchased DiscoverX KINOMEscan
# Experimental: as §1
# [31] = target: T31, PKAC-alpha (Homo sapiens, UniProt P17612); details: LL6 at 10 μM; read-out: Percent Control
# T31 construct: purchased DiscoverX KINOMEscan
# Experimental: as §1
# [32] = target: T32, JNK1 (Homo sapiens, UniProt P45983); details: LL6 at 10 μM; read-out: Percent Control
# T32 construct: purchased DiscoverX KINOMEscan
# Experimental: as §1
# [33] = target: T33, PAK2 (Homo sapiens, UniProt Q13177); details: LL6 at 10 μM; read-out: Percent Control
# T33 construct: purchased DiscoverX KINOMEscan
# Experimental: as §1
# [34] = target: T34, BRAF(V600E) (Homo sapiens, UniProt P15056, V600E); details: LL6 at 10 μM; read-out: Percent Control
# T34 construct: purchased DiscoverX KINOMEscan
# Experimental: as §1
# [35] = target: T35, ULK2 (Homo sapiens, UniProt Q8IYT8); details: LL6 at 10 μM; read-out: Percent Control
# T35 construct: purchased DiscoverX KINOMEscan
# Experimental: as §1
# [36] = target: T36, ERBB2 (Homo sapiens, UniProt P04626); details: LL6 at 10 μM; read-out: Percent Control
# T36 construct: purchased DiscoverX KINOMEscan
# Experimental: as §1
# [37] = target: T37, RSK2(Kin.Dom.1-N-terminal) (Homo sapiens, UniProt P51812); details: LL6 at 10 μM; read-out: Percent Control
# T37 construct: RSK2(Kin.Dom.1-N-terminal); purchased DiscoverX KINOMEscan
# Experimental: as §1
# [38] = target: T38, IKK-beta (Homo sapiens, UniProt O14920); details: LL6 at 10 μM; read-out: Percent Control
# T38 construct: purchased DiscoverX KINOMEscan
# Experimental: as §1
# [39] = target: T39, FAK (Homo sapiens, UniProt Q05397); details: LL6 at 10 μM; read-out: Percent Control
# T39 construct: purchased DiscoverX KINOMEscan
# Experimental: as §1
# [40] = target: T40, CSNK1G2 (Homo sapiens, UniProt P78368); details: LL6 at 10 μM; read-out: Percent Control
# T40 construct: purchased DiscoverX KINOMEscan
# Experimental: as §1
structure (smiles),measurement,setting,value
Nc1ncnc2c1c(-c1ccc(Cl)cc1)nn2CCn1cc(COc2ccc(Nc3nccc(Nc4cnc5ccccc5c4)n3)cc2)nn1 [LL6],remaining binding at 10 µM,[1],100%
same,remaining binding at 10 µM,[2],100%
same,remaining binding at 10 µM,[3],100%
same,remaining binding at 10 µM,[4],97%
same,remaining binding at 10 µM,[5],98%
same,remaining binding at 10 µM,[6],100%
same,remaining binding at 10 µM,[7],100%
same,remaining binding at 10 µM,[8],40%
same,remaining binding at 10 µM,[9],66%
same,remaining binding at 10 µM,[10],100%
same,remaining binding at 10 µM,[11],90%
same,Kd,"[12]; CSF1R, 11-point dose response, duplicate",did not show dose-dependent inhibition curves
same,inhibition at 10 µM,"[12]; CSF1R, LL6 at 10 µM",> 65%
same,remaining binding at 10 µM,"[12]; LL6 at 10 μM, read-out: Percent Control",29%
same,remaining binding at 10 µM,[13],42%
same,remaining binding at 10 µM,[14],100%
same,remaining binding at 10 µM,[15],100%
same,remaining binding at 10 µM,[16],90%
same,remaining binding at 10 µM,[17],100%
same,remaining binding at 10 µM,[18],100%
same,remaining binding at 10 µM,[19],89%
same,remaining binding at 10 µM,[20],62%
same,remaining binding at 10 µM,[21],62%
same,remaining binding at 10 µM,[22],100%
same,remaining binding at 10 µM,[23],75%
same,remaining binding at 10 µM,[24],100%
same,remaining binding at 10 µM,[25],100%
same,remaining binding at 10 µM,[26],65%
same,remaining binding at 10 µM,[27],64%
same,remaining binding at 10 µM,[28],100%
same,remaining binding at 10 µM,[29],45%
same,remaining binding at 10 µM,[30],67%
same,remaining binding at 10 µM,[31],36%
same,remaining binding at 10 µM,[32],100%
same,remaining binding at 10 µM,[33],100%
same,remaining binding at 10 µM,[34],22%
same,remaining binding at 10 µM,[35],96%
same,remaining binding at 10 µM,[36],100%
same,remaining binding at 10 µM,[37],25%
same,remaining binding at 10 µM,[38],100%
same,remaining binding at 10 µM,[39],73%
same,remaining binding at 10 µM,[40],63%
